Test results as given in US20110195979A1, “COMPOUNDS FOR THE TREATMENT AND PREVENTION OF INFLUENZA” (priority 2010, published 2011).

Tests used:
[1] = system: MDCK cells; assay: in vitro; details: dog, Cytotoxicy IC50
[2] = system: Influenza H1N1 virus; assay: Viral cytopathic effect (CPE) assay; format: cell-based, Influenza A (H1N1); details: Influenza A virus, H1N1, MDCK, 72 h, read-out: CPE_EC50
Description: Cells and viruses. Madin-Darby canine kidney cell (MDCK) was purchased from American type culture collection (ATCC) and was maintained in minimal essential medium (MEM) containing 10% fetal bovine serum and antibiotics. Influenza A/Weiss/43 (H1N1), A/PR/8/34 (H1N1), and A/Hongkong/8/68 (H3N2) were purchased from ATCC and propagated in 10-day-old embryonated chicken eggs at 37° C. Virus was harvested 48 h after inoculation as pooled allantoic fluid. After a brief centrifugation (3,000 rpm at room temperature for 20 min) and virus titer measurement by a hemagglutination test, virus was aliquoted and stored at a −80° C. freezer.
Viral cytopathic effect (CPE) assay: To measure anti-influenza activity of compounds, MDCK cells were seeded into 96-well plates at a density of 5,000 cells per well. Next day, compounds were serially half-log diluted with Gibco SFM containing trypsin. Compounds and 50 pfu of virus were added into corresponding wells to make m.o.i at 0.01 and a final trypsin concentration of 2.5 μg/ml. The testing plates also contained medium control, cell control, virus control, and compound toxicity control. After a 3-day treatment, cell viability was measured with a MTT (3-(4,5-dimethylthiazol-2-yl)-2,5-diphenyltetrazolium bromide) method. Briefly, 20 μl of MTT diluted in culture medium was added into each wells and incubated at 37° C. for 4 hours. Reduced MTT (formazan) was extracted with acidic isopropanol and absorbance at wavelengths of 570 nm and 630 nm (OD570 and OD630) was read on a microtiter plate reader. After subtraction of background OD values, dose response curves of half-log concentration vs. percent protection were generated, on which half maximal effective concentration (EC50) and half maximal toxic concentration (CC50) were calculated.

| SMILES | IC50 at 3 day [1] [µM] | EC50 [2] [µM] |
| --- | --- | --- |
| CC1(C)CC(O)CC(C)(CNc2ncccc2C(F)(F)F)C1 (stereo not drawn) [Example IIIa-5, (cis-1,5)-3,3,5-Trimethyl-5-[(3-trifluoromethyl-pyridin-2-ylamino)-methyl]-cyclohexanol] | 22.1 | < 0.159 |
| CC1(C)CC(O)CC(C)(CNc2cc(S(N)(=O)=O)ccn2)C1 (stereo not drawn) [Example IIIa-8, 2-[((cis-1,5)-5-Hydroxy-1,3,3-trimethyl-cyclohexylmethyl)-amino]-pyridine-4-sulfonic acid amide] | > 100 | 0.98 |
| CC1(C)CC(O)CC(C)(CNc2nccc(C(F)(F)F)n2)C1 (stereo not drawn) [Example IIIa-10, (cis-1,5)-3,3,5-Trimethyl-5-[(4-trifluoromethyl-pyrimidin-2-ylamino)-methyl]-cyclohexanol] | 47.8 | 0.12 |
| COc1ccnc(NCC2(C)CC(O)CC(C)(C)C2)n1 (stereo not drawn) [Example IIIa-11, (cis-1,3)-3-[(4-Methoxy-pyrimidin-2-ylamino)-methyl]-3,5,5-trimethyl-cyclohexanol] | > 50 | 1.5 |
| Cc1cc(C)nc(NCC2(C)CC(O)CC(C)(C)C2)n1 (stereo not drawn) [Example IIIa-13, (cis-1,3)-3-[(4,6-Dimethyl-pyrimidin-2-ylamino)-methyl]-3,5,5-trimethyl-cyclohexanol] | > 100 | 1.37 |
| CC1(C)CC(O)CC(C)(CNc2cncc(Cl)n2)C1 (stereo not drawn) [Example IIIb-1, (cis-1,3)-3-[(6-Chloro-pyrazin-2-ylamino)-methyl]-3,5,5-trimethyl-cyclohexanol] | > 50 | 4.12 |
| CC1(C)CC(O)CC(C)(CNc2nc3ccccc3o2)C1 (stereo not drawn) [Example IIIc-1, (cis-1,3)-3-(Benzoxazol-2-ylaminomethyl)-3,5,5-trimethyl-cyclohexanol] | 83 | 1.42 |
| CC1(C)CC(F)(F)CC(C)(CNc2nc3ccccc3o2)C1 (stereo not drawn) [Example IIIc-2, Benzoxazol-2-yl-(3,3-difluoro-1,5,5-trimethyl-cyclohexylmethyl)-amine] | 10.9 | 3.36 |
| COC1CC(C)(C)CC(C)(CNc2nc3ccccc3o2)C1 (stereo not drawn) [Example IIIc-3, Benzoxazol-2-yl-((cis-1,5)-5-methoxy-1,3,3-trimethyl-cyclohexylmethyl)-amine] | > 50 | 7.43 |
| CC1(C)CC(O)CC(C)(CNc2noc3ccccc23)C1 (stereo not drawn) [Example IIId-1, (cis-1,3)-3-(Benzo[d]isoxazol-3-ylaminomethyl)-3,5,5-trimethyl-cyclohexanol] | > 50 | 0.4 |
| CC1(C)CC(O)CC(C)(CNc2nccc3ccccc23)C1 (stereo not drawn) [Example IIIf-1, (cis-1,3)-3-(Isoquinolin-1-ylaminomethyl)-3,5,5-trimethyl-cyclohexanol] | 43.7 | 2.37 |
| COc1cccc(NCC2(C)CC(O)CC(C)(C)C2)c1 (stereo not drawn) [Example IIa-8, (cis-1,3)-3-[(3-Methoxy-phenylamino)-methyl]-3,5,5-trimethyl-cyclohexanol] | > 50 | 0.2 |
| CC(C)c1cccc(NCC2(C)CC(O)CC(C)(C)C2)c1 (stereo not drawn) [Example IIa-12, (cis-1,3)-3-[(3-Isopropyl-phenylamino)-methyl]-3,5,5-trimethyl-cyclohexanol] | 6.68 | 0.09 |
| CC1(C)CC(O)CC(C)(CNc2cc(F)cc(C(F)(F)F)c2)C1 (stereo not drawn) [Example IIa-17, (cis-1,3)-3-[(3-Fluoro-5-trifluoromethyl-phenylamino)-methyl]-3,5,5-trimethyl-cyclohexanol] | 3.66 | 0.018 |
| Cc1cc(Cl)cc(NCC2(C)CC(O)CC(C)(C)C2)c1 (stereo not drawn) [Example IIa-18, (cis-1,3)-3-[(3-Chloro-5-methyl-phenylamino)-methyl]-3,5,5-trimethyl-cyclohexanol] | > 3.16 | 0.025 |
| CC1(C)CC(O)CC(C)(CNc2cc(Cl)cc(Cl)c2)C1 (stereo not drawn) [Example IIa-19, (cis-1,3)-3-[(3,5-Dichloro-phenylamino)-methyl]-3,5,5-trimethyl-cyclohexanol] | 7.19 | 0.032 |
| CC1(C)CC(O)CC(C)(CNc2cc(Br)cc(C(F)(F)F)c2)C1 (stereo not drawn) [Example IIa-21, (cis-1,3)-3-[(3-Bromo-5-trifluoromethyl-phenylamino)-methyl]-3,5,5-trimethyl-cyclohexanol] | > 3.16 | 0.058 |

| SMILES | IC50 at 3 day [1] [µM] | EC50 [2] [µM] |
| --- | --- | --- |
| CC1(C)CC(O)CC(C)(CNc2cc(F)cc(C#N)c2)C1 (stereo not drawn) [Example IIa-22, 3-Fluoro-5-[((cis-1,5)-5-hydroxy-1,3,3-trimethyl-cyclohexylmethyl)-amino]-benzonitrile] | 23.9 | 0.05 |
| CC1(C)CC(O)CC(C)(CNc2cc(C#N)cc(C(F)(F)F)c2)C1 (stereo not drawn) [Example IIa-24, 3-[((cis-1,5)-5-Hydroxy-1,3,3-trimethyl-cyclohexylmethyl)-amino]-5-trifluoromethyl-benzonitrile] | 13.2 | 0.04 |
| CC1(C)CC(O)CC(C)(CNc2cc(C(F)(F)F)cc(C(F)(F)F)c2)C1 (stereo not drawn) [Example IIa-25, (cis-1,3)-3-[(3,5-Bis-trifluoromethyl-phenylamino)-methyl]-3,5,5-trimethyl-cyclohexanol] | 2.83 | 0.095 |
| CC1(C)CC(O)CC(C)(CNc2ccc(Cl)c(Cl)c2)C1 (stereo not drawn) [Example IIa-27, (cis-1,3)-3-[(3,4-Dichloro-phenylamino)-methyl]-3,5,5-trimethyl-cyclohexanol] | 2.49 | 0.068 |
| CN(CC1(C)CC(O)CC(C)(C)C1)c1cccc(Cl)c1 (stereo not drawn) [Example IIb-1, (cis-1,3)-3-{[(3-Chloro-phenyl)-methyl-amino]-methyl}-3,5,5-trimethyl-cyclohexanol] | 7.58 | 0.6 |
| CC1(C)CCCC(C)(CNc2cc(F)cc(C(F)(F)F)c2)C1 (stereo not drawn) [Example IIc-1, (3-Fluoro-5-trifluoromethyl-phenyl)-(1,3,3-trimethyl-cyclohexylmethyl)-amine] | 2.32 | 0.237 |
| CC(=O)OC1CC(C)(C)CC(C)(CNc2ccccc2)C1 (stereo not drawn) [Example IId-1, Acetic acid (cis-1,5)-3,3,5-trimethyl-5-phenylaminomethyl-cyclohexyl ester] | 64.4 | 0.492 |
| CC1(C)CC(F)(F)CC(C)(CNc2cc(F)cc(C(F)(F)F)c2)C1 (stereo not drawn) [Example IIe-1, (3,3-Difluoro-1,5,5-trimethyl-cyclohexylmethyl)-(3-fluoro-5-trifluoromethyl-phenyl)-amine] | > 3.16 | 0.264 |
| COC1CC(C)(C)CC(C)(CNc2cc(F)cc(C(F)(F)F)c2)C1 (stereo not drawn) [Example IIf-1, (3-Fluoro-5-trifluoromethyl-phenyl)-((cis-1,5)-5-methoxy-1,3,3-trimethyl-cyclohexylmethyl)-amine] | > 3.16 | 0.129 |
| CC1(C)CC(C)(O)CC(C)(CNc2cc(F)cc(C(F)(F)F)c2)C1 (stereo not drawn) [Example IIg-1, (cis-1,3)-3-[(3-Fluoro-5-trifluoromethyl-phenylamino)-methyl]-1,3,5,5-tetramethyl-cyclohexanol] | > 3.16 | 0.089 |
| CN(C)C1CC(C)(C)CC(C)(CNc2cc(F)cc(C(F)(F)F)c2)C1 (stereo not drawn) [Example IIh-1, ((cis-1,5)-5-Dimethylamino-1,3,3-trimethyl-cyclohexylmethyl)-(3-fluoro-5-trifluoromethyl-phenyl)-amine] | 8.39 | 1.7 |
| CC1(C)CC(O)CC(C)(C(=O)Nc2cccc(Cl)c2)C1 (stereo not drawn) [Example IVa-3, (cis-1,5)-5-Hydroxy-1,3,3-trimethyl-cyclohexanecarboxylic acid(3-chloro-phenyl)-amide] | 82.1 | 0.46 |
| CC1(C)CC(O)CC(C)(C(=O)Nc2cccc(C(F)(F)F)c2)C1 (stereo not drawn) [Example IVa-4, (cis-1,5)-5-Hydroxy-1,3,3-trimethyl-cyclohexanecarboxylic acid(3-trifluoromethyl-phenyl)-amide] | 68.3 | 0.34 |
| CC(C)c1cccc(NC(=O)C2(C)CC(O)CC(C)(C)C2)c1 (stereo not drawn) [Example IVa-5, (cis-1,5)-5-Hydroxy-1,3,3-trimethyl-cyclohexanecarboxylic acid(3-isopropyl-phenyl)-amide] | 21.6 | 1.04 |
| CC1(C)CC(O)CC(C)(C(=O)Nc2cccc(OC(F)(F)F)c2)C1 (stereo not drawn) [Example IVa-8, (cis-1,5)-5-Hydroxy-1,3,3-trimethyl-cyclohexanecarboxylic acid(3-trifluoromethoxy-phenyl)-amide] | 60 | 0.861 |
| CC1(C)CC(O)CC(C)(C(=O)Nc2cccc(S(N)(=O)=O)c2)C1 (stereo not drawn) [Example IVa-10, (cis-1,5)-5-Hydroxy-1,3,3-trimethyl-cyclohexanecarboxylic acid(3-sulfamoyl-phenyl)-amide] | > 100 | 7.96 |
